Test results published in ChEMBL document CHEMBL4765344, “Expanding the anticancer potential of 1,2,3-triazoles via simultaneously targeting Cyclooxygenase-2, 15-lipoxygenase and tumor-associated carbonic anhydrases” (Eur J Med Chem, 2020).
The source made the active and inactive calls. No cut-off for these calls is given here.

Experiments:
HepG2 [1] = assay: Antiproliferative activity against human HepG2 cells assessed as cell growth inhibition measured after 72 hrs by SRB assay; format: functional, cell-based; conditions: HepG2, 72 h
A549 [2] = assay: Antiproliferative activity against human A549 cells assessed as inhibition of cell growth at 100 microM measured after 72 hrs by SRB assay; format: functional
MCF7 [3] = assay: Antiproliferative activity against human MCF-7 cells assessed as inhibition of cell growth at 100 microM measured after 72 hrs by SRB assay; format: functional
MCF7 [4] = assay: Antiproliferative activity against human MCF-7 cells assessed as cell growth inhibition measured after 72 hrs by SRB assay; format: functional, cell-based; conditions: MCF7, 72 h
HepG2 [5] = assay: Antiproliferative activity against human HepG2 cells assessed as inhibition of cell growth at 100 microM measured after 72 hrs by SRB assay; format: functional
A549 [6] = assay: Antiproliferative activity against human A549 cells assessed as cell growth inhibition measured after 72 hrs by SRB assay; format: functional, cell-based; conditions: A549, 72 h
WI-38 = assay: Cytotoxicity against human WI-38 cells assessed as reduction in cell viability after 72 hrs by SRB assay; format: cell-based; conditions: WI-38, 72 h
[7] = Inhibition of soya bean 15-LOX; design: species or system Glycine max
[8] = target: T1, Prostaglandin G/H synthase 1 (Ovis aries, UniProt P05979); assay: Inhibition of ovine COX1 by colorimetric analysis
T1 sequence (P05979 whole entry): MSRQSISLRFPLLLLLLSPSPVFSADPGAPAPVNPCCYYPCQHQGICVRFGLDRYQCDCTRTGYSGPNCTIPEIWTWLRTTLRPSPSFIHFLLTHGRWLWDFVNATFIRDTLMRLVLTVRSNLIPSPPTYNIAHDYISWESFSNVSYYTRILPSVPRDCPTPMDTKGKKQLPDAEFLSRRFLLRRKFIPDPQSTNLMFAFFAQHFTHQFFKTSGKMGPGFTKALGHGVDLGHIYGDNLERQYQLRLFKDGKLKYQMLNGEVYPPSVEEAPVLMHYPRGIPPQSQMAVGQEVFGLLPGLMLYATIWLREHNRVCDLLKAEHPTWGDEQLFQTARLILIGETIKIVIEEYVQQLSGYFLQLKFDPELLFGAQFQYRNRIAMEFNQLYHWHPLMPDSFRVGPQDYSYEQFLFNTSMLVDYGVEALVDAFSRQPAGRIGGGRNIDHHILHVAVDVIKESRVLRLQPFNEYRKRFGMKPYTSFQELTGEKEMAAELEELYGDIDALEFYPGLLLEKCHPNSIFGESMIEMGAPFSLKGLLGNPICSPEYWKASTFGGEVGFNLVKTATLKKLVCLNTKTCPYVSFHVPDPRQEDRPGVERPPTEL

Carbonic anhydrase 2 = Carbonic anhydrase 2 (Homo sapiens, UniProt P00918); assay: Inhibition of human CA2 by stopped-flow carbon dioxide hydration assay
Carbonic anhydrase 12 = Carbonic anhydrase 12 (Homo sapiens, UniProt O43570); assay: Inhibition of human CA12 by stopped-flow carbon dioxide hydration assay
Carbonic anhydrase 9 = Carbonic anhydrase 9 (Homo sapiens, UniProt Q16790); assay: Inhibition of human CA9 by stopped-flow carbon dioxide hydration assay
Carbonic anhydrase 1 = Carbonic anhydrase 1 (Homo sapiens, UniProt P00915); assay: Inhibition of human CA1 by stopped-flow carbon dioxide hydration assay
THP-1 = assay: Cytotoxicity against PMA/LPS-challenged human THP1 cells assessed as reduction in cell viability incubated for 24 hrs by MTS assay; format: functional, cell-based; conditions: THP-1, 24 h
HT-29 = assay: Cytotoxicity against human HT-29 cells assessed as reduction in cell viability incubated for 24 hrs by MTS assay; format: functional, cell-based; conditions: HT-29, 24 h

Carbonic anhydrase 12, sequence (O43570 whole entry): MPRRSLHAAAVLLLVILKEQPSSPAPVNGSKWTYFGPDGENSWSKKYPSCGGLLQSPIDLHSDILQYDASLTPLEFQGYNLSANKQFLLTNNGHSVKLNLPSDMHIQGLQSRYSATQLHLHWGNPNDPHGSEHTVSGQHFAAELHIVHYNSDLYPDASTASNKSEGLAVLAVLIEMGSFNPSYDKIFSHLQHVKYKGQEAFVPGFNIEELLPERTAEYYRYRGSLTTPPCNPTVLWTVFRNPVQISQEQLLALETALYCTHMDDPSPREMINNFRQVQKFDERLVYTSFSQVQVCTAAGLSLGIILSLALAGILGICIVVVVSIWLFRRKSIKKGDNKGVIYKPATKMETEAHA
Carbonic anhydrase 1, sequence (P00915 whole entry): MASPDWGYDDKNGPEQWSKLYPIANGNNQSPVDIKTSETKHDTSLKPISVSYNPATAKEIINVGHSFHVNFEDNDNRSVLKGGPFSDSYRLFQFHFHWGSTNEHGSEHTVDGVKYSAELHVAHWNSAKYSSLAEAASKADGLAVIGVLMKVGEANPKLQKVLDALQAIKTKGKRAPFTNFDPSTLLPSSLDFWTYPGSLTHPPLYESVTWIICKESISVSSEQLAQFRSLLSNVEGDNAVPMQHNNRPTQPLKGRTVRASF

SMILES	IC50 (HepG2 [1])	IC50 (MCF7 [4])	IC50 (A549 [6])	IC50 [7]	IC50 [8]	Ki (Carbonic anhydrase 2)	Ki (Carbonic anhydrase 12)	Ki (Carbonic anhydrase 9)	Ki (Carbonic anhydrase 1)	inhibition at 100 µM (A549 [2])	inhibition at 100 µM (MCF7 [3])	inhibition at 100 µM (HepG2 [5])	IC50 (WI-38)	inhibition (A549 [2])	inhibition (HepG2 [5])	IC50 (THP-1)	IC50 (HT-29)
CC(=O)c1nnn(-c2ccc(F)cc2)c1C				4.75 µM	7.3 µM												
Cc1c(-c2nn(-c3ccccc3)cc2/C=N/O)nnn1-c1ccc(S(N)(=O)=O)cc1				1.91 µM	13.9 µM	7.71 µM	> 100 µM	> 100 µM	18.3 µM		43.5%	12.5%	450 µM	inactive			
O=c1c(O)c(-c2ccc(O)c(O)c2)oc2cc(O)cc(O)c12 [QUERCETIN]				3.34 µM													
CC(=O)c1nnn(-c2ccc(C(=O)O)cc2)c1C				5.14 µM	6.4 µM												
C/C(=N\NC(N)=S)c1nnn(-c2ccc(C(=O)O)cc2)c1C				1.65 µM	11.6 µM		> 100 µM	> 100 µM	> 100 µM		46.6%		480 µM	inactive	inactive		
CC(=O)c1nnn(-c2ccc(S(N)(=O)=O)cc2)c1C				3.65 µM	7.6 µM	0.0079 µM	0.0826 µM	9.12 µM	0.073 µM		17.7%	3.61%	391 µM	inactive			
C/C(=N\NC(N)=O)c1nnn(-c2ccc(S(N)(=O)=O)cc2)c1C				4.74 µM	5.9 µM	0.0164 µM	0.0198 µM	4.22 µM	0.213 µM	18.2%	5.8%		365 µM		inactive		
C/C(=N\NC(N)=O)c1nnn(-c2ccc(F)cc2)c1C				4.72 µM	8.4 µM												
C/C(=N\NC(N)=O)c1nnn(-c2ccc(C(=O)O)cc2)c1C				4.51 µM	6.9 µM												
C/C(=N\Nc1nc(-c2ccc(Cl)cc2)cs1)c1nnn(-c2ccc(S(=O)(=O)Nc3nccs3)cc2)c1C	89.5 µM		99.3 µM	1.19 µM	14.2 µM	> 100 µM	> 100 µM	> 100 µM	> 100 µM	51.1%	39.9%	56%	468 µM				
CC(=O)c1nnn(-c2ccc(Cl)cc2)c1C				3.65 µM	7.9 µM												
O=C(O)Cc1ccccc1Nc1c(Cl)cccc1Cl [DICLOFENAC SODIUM]																201 µM	137 µM

Second part, led by results:

IC50 (HepG2 [1])	IC50 (MCF7 [4])	IC50 (A549 [6])	IC50 [7]	IC50 [8]	Ki (Carbonic anhydrase 2)	Ki (Carbonic anhydrase 12)	Ki (Carbonic anhydrase 9)	Ki (Carbonic anhydrase 1)	SMILES	inhibition at 100 µM (A549 [2])	inhibition at 100 µM (MCF7 [3])	inhibition at 100 µM (HepG2 [5])	IC50 (WI-38)	inhibition (A549 [2])	inhibition (HepG2 [5])	IC50 (THP-1)	IC50 (HT-29)
0.36 µM	2.56 µM	17.5 µM							Cc1ccc(-c2cc(C(F)(F)F)nn2-c2ccc(S(N)(=O)=O)cc2)cc1 [CELECOXIB]	86.2%	89.9%	77.9%	433 µM				
			1.83 µM	11.9 µM					C/C(=N\Nc1nc(-c2ccc(Cl)cc2)cs1)c1nnn(-c2ccc(F)cc2)c1C	11.9%	33.5%	20.7%	414 µM				
26.5 µM	22 µM	55.7 µM	1.47 µM	12.9 µM	> 100 µM	> 100 µM	> 100 µM	> 100 µM	Cc1c(-c2nn(-c3ccccc3)cc2/C=N/O)nnn1-c1ccc(Cl)cc1	69.7%	97.8%	79%	402 µM				
			5.33 µM	7.9 µM					C/C(=N\NC(N)=S)c1nnn(-c2ccc(Cl)cc2)c1C								
			1.69 µM	10.3 µM		> 100 µM	> 100 µM	> 100 µM	C/C(=N\NC(N)=S)c1nnn(-c2ccc(S(=O)(=O)Nc3nccs3)cc2)c1C	11.3%	20.7%	22.1%	458 µM				
			6.52 µM	7.9 µM	6.86 µM	> 100 µM	> 100 µM	46.3 µM	C/C(=N\NC(N)=O)c1nnn(-c2ccc(S(=O)(=O)Nc3nccs3)cc2)c1C								
			1.51 µM	13 µM		0.0153 µM	7.27 µM	0.0835 µM	C/C(=N\NC(N)=S)c1nnn(-c2ccc(S(N)(=O)=O)cc2)c1C	3.88%	36.1%		378 µM		inactive		
		73.1 µM	1.76 µM	10.9 µM		> 100 µM	> 100 µM	0.551 µM	C/C(=N\Nc1nc(-c2ccc(Cl)cc2)cs1)c1nnn(-c2ccc(C(=O)O)cc2)c1C	67%	40.4%	1.41%	461 µM				
			6.84 µM	5.6 µM					C/C(=N\NC(N)=O)c1nnn(-c2ccc(Cl)cc2)c1C								
			4.72 µM	5.8 µM		> 100 µM	> 100 µM	51 µM	CC(=O)c1nnn(-c2ccc(S(=O)(=O)Nc3nccs3)cc2)c1C								
			2.42 µM	9.6 µM	> 100 µM	> 100 µM	> 100 µM	> 100 µM	C/C(=N\NC(N)=S)c1nnn(-c2ccc(F)cc2)c1C		6.52%	19.8%	406 µM	inactive			
31.1 µM	5.32 µM	27 µM	1.98 µM	10.9 µM	> 100 µM	> 100 µM	> 100 µM	> 100 µM	Cc1c(-c2nn(-c3ccccc3)cc2/C=N/O)nnn1-c1ccc(F)cc1	92.4%	98.2%	89%	393 µM				
